These results are taken from EP4603105A1, “PHARMACEUTICAL COMPOSITION CONTAINING CYCLIC COMPOUND HAVING SELECTIVE KRAS INHIBITORY EFFECT AGAINST HRAS AND NRAS” (CHUGAI SEIYAKU KABUSHIKI KAISHA, priority 2022, dated 2024).

Where a SMILES comes first, the peptide text is derived from it. Bridges are numbered along the chain shown (N, C = ends). [ ]: non-standard residue; d: D form. The star is where a group is joined. hPhe(3-Cl-4-CF3) = N[C@@H](CCc1ccc(C(F)(F)F)c(Cl)c1)C(=O)O; NPrPhe(4-CF3) = CCCN[C@@H](Cc1ccc(C(F)(F)F)cc1)C(=O)O; Morpholine(3S-CO) = O=C(O)[C@@H]1COCCN1; NMeGly(cPent) = CN[C@H](C(=O)O)C1CCCC1; NMeD = CN[C@@H](CC(=O)O)C(=O)O; NMeL = CN[C@@H](CC(C)C)C(=O)O; Morpholide = C1CN(*)CCO1; Ac5c = NC1(C(=O)O)CCCC1; Aze = O=C(O)[C@@H]1CCN1; Sar = CNCC(=O)O

Experiment [1] addresses GDP-bound NRAS wild-type protein (Homo sapiens, UniProt P01111). Nature of the experiment: Binding to NRAS by surface plasmon resonance (SPR), KD and KD ratio to KRAS. The procedure, abridged:
(§1)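 Recombinant RAS proteins bearing a biotinylated Avi tag and loaded with GDP served as the captured ligand, recaptured fresh every cycle. Binding responses were referenced to an uncoated surface and a buffer-only blank cycle. Dissociation constants were obtained by 1:1 model fitting at 30°C.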
A general note: SPR reads the build-up and loss of mass on a sensor chip optically.

Experiment [2] concerns human lung cancer strain NCI-H441. It is filed as cell-based. The procedure, abridged: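 Signal came from […] measured per well once the reagent was added. Beforehand, cells were cultured at 37°C and 5% carbon dioxide on a compound series serially diluted in dimethyl sulfoxide.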
Experiment [3] concerns the target GDP-bound KRAS wild-type protein (Homo sapiens, UniProt P01116). The experiment in a line: Binding to KRAS by surface plasmon resonance (SPR), dissociation constant KD. Conditions: 1:1 binding model. The method, boiled down:
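Read-out is KD from 1:1 fitting of single-cycle kinetics sensorgrams, blank-cycle and reference-surface corrected. Proteins were GDP-loaded, biotinylated Avi-fusions freshly captured each cycle at roughly 100–300 RU. Runs were at 30°C in HBS pH 7.4 with MgCl2, GDP and 4% DMSO.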

In experiment [4] the target is HRAS wild-type protein (Homo sapiens, UniProt P01112). The experiment in a line: Binding to HRAS by surface plasmon resonance (SPR), KD and KD ratio to KRAS. The method, boiled down: as §1
HRAS wild-type protein, sequence (P01112 whole entry): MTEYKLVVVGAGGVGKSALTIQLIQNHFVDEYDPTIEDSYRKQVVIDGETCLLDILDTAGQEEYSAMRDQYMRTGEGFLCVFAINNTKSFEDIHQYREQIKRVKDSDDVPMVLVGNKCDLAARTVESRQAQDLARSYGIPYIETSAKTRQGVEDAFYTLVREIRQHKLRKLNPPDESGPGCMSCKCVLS
[5] abbreviates: ratio of KD for GDP-bound NRAS wild-type protein to KD for KRAS.
The mark [6] stands for this setting: ratio of KD for HRAS wild-type protein to KD for KRAS.
[7] abbreviates: ratio of the KD value with respect to GDP-bound NRAS wild-type protein to the KD value with respect to KRAS.
The mark [8] stands for this setting: ratio of the KD value with respect to HRAS wild-type protein to the KD value with respect to KRAS.

GDP-bound NRAS wild-type protein, sequence (P01111 whole entry): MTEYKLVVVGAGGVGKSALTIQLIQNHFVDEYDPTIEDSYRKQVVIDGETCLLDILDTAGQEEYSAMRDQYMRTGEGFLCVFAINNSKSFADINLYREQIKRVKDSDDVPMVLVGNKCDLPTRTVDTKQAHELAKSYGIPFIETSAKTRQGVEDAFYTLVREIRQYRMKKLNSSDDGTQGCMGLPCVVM
GDP-bound KRAS wild-type protein, sequence (P01116 1-188 isoform P01116-2): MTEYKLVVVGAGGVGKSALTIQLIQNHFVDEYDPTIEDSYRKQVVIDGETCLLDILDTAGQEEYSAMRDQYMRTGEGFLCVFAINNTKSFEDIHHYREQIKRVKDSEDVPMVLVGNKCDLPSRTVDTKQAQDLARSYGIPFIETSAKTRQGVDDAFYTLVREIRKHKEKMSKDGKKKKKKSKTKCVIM

`CCCOC[C@H]1C(=O)N[C@@H]([C@@H](C)CC)C(=O)N(C)CC(=O)N(C)[C@H]2C/C=C\CCN(C2=O)[C@@H](Cc2ccc(C)cc2)C(=O)N(C)CC(=O)N[C@@H](CCc2cc(F)c(C(F)(F)F)c(F)c2)C(=O)N2C[C@H](OCC)C[C@H]2C(=O)NC2(CC(C)(C)C2)C(=O)N(C)[C@@H](C2CCCC2)C(=O)N(C)[C@H](C(=O)N(C)CC)CC(=O)N1C` [PP1577]: the “NRAS /KRAS” value in experiment [1] (ratio of KD value for GDP-bound NRAS wild-type protein to KD value for KRAS (SPR)) was “B (a compound having 3 or more and less than 10 is denoted as B)”. The same compound registered an IC50 in experiment [2] of 6.7 nM. Besides, in experiment [3] (Single Cycle Kinetics), binding was put at a Kd of 0.17 nM. The “HRAS /KRAS” value in experiment [4] (ratio of KD value for HRAS wild-type protein to KD value for KRAS (SPR)) is “B (a compound having 3 or more and less than 10 is denoted as B)”.
`CCCN1C(=O)CN(C)C(=O)[C@@H]2CCN2C(=O)[C@H]([C@@H](C)CC)NC(=O)[C@H](CC(C)C)N(C)C(=O)C[C@@H](C(=O)N2CCOCC2)N(C)C(=O)[C@H](C2CCCC2)N(C)C(=O)C2(CCCC2)NC(=O)[C@@H]2COCCN2C(=O)[C@H](CCc2ccc(C(F)(F)F)c(Cl)c2)NC(=O)CN(C)C(=O)[C@@H]1Cc1ccc(C(F)(F)F)cc1` [PP0313] ([NMeL]I[Aze][Sar][NPrPhe(4-CF3)][Sar][hPhe(3-Cl-4-CF3)][Morpholine(3S-CO)][Ac5c][NMeGly(cPent)][NMeD]-Morpholide; lactam N-11): the “NRAS /KRAS” value in experiment [1] (setting [5]) was “B (a compound having 3 or more and less than 10 is denoted as B)”. For the same compound, in experiment [2], the IC50 is 56.6 nM. Besides, the Kd in experiment [3] came to 2.2 nM. For the same compound, in experiment [4] (setting [6]), the “HRAS /KRAS” value is “C (A compound having a KD ratio of 0.1 or more and less than 3 is denoted as C)”.
As for `CCO[C@@H]1C[C@H]2C(=O)NC3(CCC3)C(=O)N(C)[C@@H](C3CCCC3)C(=O)N(CCc3ccccc3)[C@H](C(=O)N3CCOCC3)CC(=O)N(C)[C@@H](CC(C)C)C(=O)N[C@@H]([C@@H](C)CC)C(=O)N(C)CC(=O)N(C)[C@H]3CCCCCN(C3=O)[C@@H](Cc3ccc(C(F)(F)F)cc3)C(=O)N(C)CC(=O)N[C@@H](CCc3cc(F)c(C(F)(F)F)c(F)c3)C(=O)N2C1` [PP0642], the “NRAS /KRAS” value in experiment [1] (setting [7]) was “B (a compound having 3 or more and less than 10 is denoted as B)”. The compound further displayed an IC50 in experiment [2] of 2650 nM. This compound registered a Kd in experiment [3] (Single Cycle Kinetics) of 110 nM. The “HRAS /KRAS” value in experiment [4] (setting [8]) is “B (a compound having 3 or more and less than 10 is denoted as B)”.
On to `CCO[C@@H]1C[C@H]2C(=O)NC3(CCC3)C(=O)N(C)[C@@H](C3CCCC3)C(=O)N(C)[C@H](C(=O)N(C)CC)CC(=O)N(C)[C@H]3CCCCCCc4ccc(cc4)C[C@@H](C(=O)N(C)CC(=O)N[C@@H](CCc4ccc(C(F)(F)F)c(OC)c4)C(=O)N2C1)N1CC/C=C\C[C@@H](C1=O)N(C)C(=O)CN(C)C(=O)[C@H]([C@@H](C)CC)NC3=O` [PP2263], for which the “NRAS /KRAS” value in experiment [1] (setting [7]) was “A (a compound having 10 or more and less than 20 is denoted as A)”. In addition, the IC50 in experiment [2] was 19.5 nM. In experiment [3] (Single Cycle Kinetics), binding was put at a Kd of 0.98 nM. Also, the “HRAS /KRAS” value in experiment [4] (setting [8]) was “A (a compound having 10 or more and less than 20 is denoted as A)”.
With `CCO[C@@H]1C[C@H]2C(=O)NC3(CC(C)(C)C3)C(=O)N(C)[C@@H](C3CCCC3)C(=O)N(C)[C@H](C(=O)N(C)CC)CC(=O)N(C)[C@@H](CC(C)C)C(=O)N[C@@H]([C@@H](C)CC)C(=O)N(C)CC(=O)N(C)[C@H]3C/C=C\CCN(C3=O)[C@@H](Cc3ccc(C(F)F)cc3)C(=O)N(C)CC(=O)N[C@@H](CCc3ccc(C4CC4)c(F)c3)C(=O)N2C1` [PP3154], the “NRAS /KRAS” value in experiment [1] (setting [5]) is “A (a compound having 10 or more and less than 20 is denoted as A)”. For the same compound, the IC50 in experiment [2] turned out to be 26.2 nM. The Kd in experiment [3] was 0.53 nM. Further, the “HRAS /KRAS” value in experiment [4] (setting [6]) is “A (a compound having 10 or more and less than 20 is denoted as A)”.
Take `CCO[C@@H]1C[C@H]2C(=O)NC3(CCC3)C(=O)N(C)[C@@H](C3CCCC3)C(=O)N(C)[C@H](C(=O)N(C)C)CC(=O)N(C)[C@@H](CC(C)C)C(=O)N[C@@H]([C@@H](C)CC)C(=O)N(C)CC(=O)N(C)[C@H]3CCCCCN(C3=O)[C@@H](Cc3ccc(C(F)(F)F)cc3)C(=O)N(C)CC(=O)N[C@@H](CCc3cc(F)c(C(F)(F)F)c(F)c3)C(=O)N2C1` [PP0469]: the “NRAS /KRAS” value in experiment [1] (setting [7]) was “B (a compound having 3 or more and less than 10 is denoted as B)”. In experiment [2], the IC50 was 36.1 nM. In experiment [3] (Single Cycle Kinetics), this compound yielded a Kd of 0.76 nM. The “HRAS /KRAS” value in experiment [4] (setting [8]) was “B (a compound having 3 or more and less than 10 is denoted as B)”.

The term IC50 denotes the concentration at which inhibition is half-maximal. Higher therefore signals lower potency. In general, Kd refers to the equilibrium constant for the complex coming apart.
